Assay results: PubChem BioAssay AID248 (DTP/NCI, 2004)
Several values for one entry are separate records, joined by “and”; a condition that tells them apart may be missing. Equal entries are not always repeated. Inconclusive results and toxic doses are left out.

System: L1210 leukemia ip in BDF1 mice, survival T/C
Assay: NCI In Vivo Anticancer Drug Screen. Data for tumor model L1210 Leukemia (intraperitoneal) in B6D2F1 (BDF1) mice
Conditions: endpoint: mean survival time, higher = longer survival
Method in brief: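 Mice bearing the transplanted tumor received compound or vehicle. Survival of the treated group was divided by that of the vehicle-treated control group to give the ratio.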

[1] = dose: 5.0 mg/kg/injection, schedule: Q01DX001 (ip), vehicle: other
[2] = dose: 10.0 mg/kg/injection, schedule: Q01DX001 (ip), vehicle: other

SMILES: CC(=O)NC(CCC(=O)C=[N+]=N)C(=O)O (stereo not given)
- T/C (dose: 0.1 mg/kg/injection, schedule: Q01DX009 (ip), vehicle: other): 98 % of control and 100 % of control and 101 % of control
- T/C (dose: 0.2 mg/kg/injection, schedule: Q01DX009 (ip), vehicle: other): 105 % of control and 116 % of control (2×)
- T/C (dose: 0.2 mg/kg/injection, schedule: Q01DX015 (ip), vehicle: saline): 108 % of control
- T/C (dose: 0.4 mg/kg/injection, schedule: Q01DX001 (ip), vehicle: saline): 106 % of control
- T/C (dose: 0.4 mg/kg/injection, schedule: Q01DX009 (ip), vehicle: other): 100 % of control
- T/C (dose: 0.4 mg/kg/injection, schedule: Q01DX015 (ip), vehicle: saline): 120 % of control
- T/C (dose: 0.5 mg/kg/injection, schedule: Q01DX001 (ip), vehicle: other): 109 % of control
- T/C (dose: 0.5 mg/kg/injection, schedule: Q01DX001 (ip), vehicle: saline): 113 % of control
- T/C (dose: 0.5 mg/kg/injection, schedule: Q04DX003 (ip), vehicle: other): 113 % of control
- T/C (dose: 0.5 mg/kg/injection, schedule: Q08DX002 (ip), vehicle: other): 106 % of control
- T/C (dose: 0.6 mg/kg/injection, schedule: Q01DX001 (ip), vehicle: saline): 110 % of control
- T/C (dose: 0.6 mg/kg/injection, schedule: Q01DX015 (ip), vehicle: saline): 123 % of control
- T/C (dose: 0.8 mg/kg/injection, schedule: Q01DX009 (ip), vehicle: other): 119 % of control
- T/C (dose: 1.0 mg/kg/injection, schedule: Q01DX001 (ip), vehicle: other): 106 % of control
- T/C (dose: 1.0 mg/kg/injection, schedule: Q01DX009 (ip), vehicle: other): 122 % of control
- T/C (dose: 1.0 mg/kg/injection, schedule: Q01DX015 (ip), vehicle: saline): 121 % of control
- T/C (dose: 1.0 mg/kg/injection, schedule: Q04DX003 (ip), vehicle: other): 120 % of control
- T/C (dose: 1.0 mg/kg/injection, schedule: Q08DX002 (ip), vehicle: other): 109 % of control
- T/C (dose: 1.5 mg/kg/injection, schedule: Q01DX001 (ip), vehicle: saline): 114 % of control
- T/C (dose: 2.0 mg/kg/injection, schedule: Q01DX001 (ip), vehicle: other): 111 % of control
- T/C (dose: 2.0 mg/kg/injection, schedule: Q01DX001 (ip), vehicle: saline): 122 % of control
- T/C (dose: 2.0 mg/kg/injection, schedule: Q01DX009 (ip), vehicle: other): 96 % of control
- T/C (dose: 2.0 mg/kg/injection, schedule: Q04DX003 (ip), vehicle: other): 120 % of control
- T/C (dose: 2.0 mg/kg/injection, schedule: Q08DX002 (ip), vehicle: other): 111 % of control
- T/C (dose: 4.0 mg/kg/injection, schedule: Q01DX001 (ip), vehicle: saline): 112 % of control
- T/C (dose: 4.0 mg/kg/injection, schedule: Q04DX003 (ip), vehicle: other): 117 % of control
- T/C [1]: 111 % of control
- T/C (dose: 5.0 mg/kg/injection, schedule: Q03HX008 (ip), vehicle: other): 117 % of control
- T/C (dose: 5.0 mg/kg/injection, schedule: Q03HX024 (ip), vehicle: other): 150 % of control
- T/C (dose: 5.0 mg/kg/injection, schedule: Q08DX002 (ip), vehicle: other): 121 % of control
- T/C [2]: 122 % of control
- T/C (dose: 10.0 mg/kg/injection, schedule: Q03HX008 (ip), vehicle: other): 118 % of control
- T/C (dose: 10.0 mg/kg/injection, schedule: Q03HX024 (ip), vehicle: other): 187 % of control
- T/C (dose: 16.0 mg/kg/injection, schedule: Q01DX001 (ip), vehicle: saline): 117 % of control
- T/C (dose: 20.0 mg/kg/injection, schedule: Q03HX008 (ip), vehicle: other): 110 % of control
- T/C (dose: 20.0 mg/kg/injection, schedule: Q03HX024 (ip), vehicle: other): 172 % of control
- T/C (dose: 32.0 mg/kg/injection, schedule: Q01DX001 (ip), vehicle: saline): 118 % of control
- T/C (dose: 40.0 mg/kg/injection, schedule: Q03HX008 (ip), vehicle: other): 121 % of control
- T/C (dose: 40.0 mg/kg/injection, schedule: Q03HX016 (ip), vehicle: other): 150 % of control
- T/C (dose: 40.0 mg/kg/injection, schedule: Q03HX024 (ip), vehicle: other): 112 % of control

SMILES: Cc1cccc(NNC(N)=O)c1
- T/C (dose: 55.0 mg/kg/injection, schedule: Q01DX Z (ip), vehicle: saline): 103 % of control
- T/C (dose: 83.0 mg/kg/injection, schedule: Q01DX Z (ip), vehicle: saline): 97 % of control
- T/C (dose: 125.0 mg/kg/injection, schedule: Q01DX Z (ip), vehicle: saline): 101 % of control

SMILES: O=C(N=C(c1ccccc1)c1ccccc1)c1ccccc1
- T/C (dose: 100.0 mg/kg/injection, schedule: Q04DX003 (ip), vehicle: saline with Tween-80): 90 % of control
- T/C (dose: 200.0 mg/kg/injection, schedule: Q04DX003 (ip), vehicle: saline with Tween-80): 90 % of control
- T/C (dose: 400.0 mg/kg/injection, schedule: Q04DX003 (ip), vehicle: saline with Tween-80): 88 % of control

SMILES: COc1ccc(OC)c(-c2cc3c(OC)ccc(OC)c3[nH]2)c1
- T/C (dose: 25.0 mg/kg/injection, schedule: Q04DX002 (ip), vehicle: saline with Tween-80): 96 % of control
- T/C (dose: 50.0 mg/kg/injection, schedule: Q04DX002 (ip), vehicle: saline with Tween-80): 86 % of control
- T/C (dose: 100.0 mg/kg/injection, schedule: Q04DX002 (ip), vehicle: saline with Tween-80): 99 % of control

SMILES: COc1ccc(C(CC(=O)O)c2ccccc2)cc1 (stereo not given)
- T/C (dose: 100.0 mg/kg/injection, schedule: Q01DX001 (ip), vehicle: saline): 94 % of control
- T/C (dose: 200.0 mg/kg/injection, schedule: Q01DX001 (ip), vehicle: saline): 93 % of control
- T/C (dose: 400.0 mg/kg/injection, schedule: Q01DX001 (ip), vehicle: saline): 100 % of control

SMILES: COc1ccc(SC(=O)N(C)C)cc1
- T/C (dose: 100.0 mg/kg/injection, schedule: Q01DX001 (ip), vehicle: saline with Tween-80): 98 % of control
- T/C (dose: 200.0 mg/kg/injection, schedule: Q01DX001 (ip), vehicle: saline with Tween-80): 94 % of control
- T/C (dose: 400.0 mg/kg/injection, schedule: Q01DX001 (ip), vehicle: saline with Tween-80): 98 % of control

SMILES: Cc1cc(N(CCCl)CCCl)c(C)cc1NC(=O)c1ccccc1
- T/C (dose: 0.75 mg/kg/injection, schedule: Q01DX009 (ip), vehicle: other): 109 % of control
- T/C (dose: 1.5 mg/kg/injection, schedule: Q01DX009 (ip), vehicle: other): 105 % of control
- T/C (dose: 3.0 mg/kg/injection, schedule: Q01DX009 (ip), vehicle: other): 124 % of control
- T/C [1]: 118 % of control
- T/C (dose: 6.0 mg/kg/injection, schedule: Q01DX009 (ip), vehicle: carboxymethylcellulose (CMC)): 119 % of control
- T/C [2]: 114 % of control
- T/C (dose: 10.0 mg/kg/injection, schedule: Q01DX001 (ip), vehicle: saline): 117 % of control
- T/C (dose: 10.0 mg/kg/injection, schedule: Q01DX009 (ip), vehicle: carboxymethylcellulose (CMC)): 119 % of control
- T/C (dose: 17.6 mg/kg/injection, schedule: Q01DX001 (ip), vehicle: carboxymethylcellulose (CMC)): 111 % of control
- T/C (dose: 17.6 mg/kg/injection, schedule: Q01DX001 (ip), vehicle: other): 110 % of control and 115 % of control
- T/C (dose: 18.0 mg/kg/injection, schedule: Q01DX009 (ip), vehicle: carboxymethylcellulose (CMC)): 117 % of control
- T/C (dose: 20.0 mg/kg/injection, schedule: Q01DX001 (ip), vehicle: other): 122 % of control
- T/C (dose: 20.0 mg/kg/injection, schedule: Q01DX001 (ip), vehicle: saline): 96 % of control
- T/C (dose: 26.0 mg/kg/injection, schedule: Q01DX001 (ip), vehicle: carboxymethylcellulose (CMC)): 120 % of control
- T/C (dose: 26.0 mg/kg/injection, schedule: Q01DX001 (ip), vehicle: other): 115 % of control
- T/C (dose: 30.0 mg/kg/injection, schedule: Q01DX009 (ip), vehicle: carboxymethylcellulose (CMC)): 101 % of control
- T/C (dose: 30.0 mg/kg/injection, schedule: Q01DX009 (ip), vehicle: other): 96 % of control
- T/C (dose: 40.0 mg/kg/injection, schedule: Q01DX001 (ip), vehicle: other): 124 % of control
- T/C (dose: 40.0 mg/kg/injection, schedule: Q01DX001 (ip), vehicle: saline): 122 % of control
- T/C (dose: 80.0 mg/kg/injection, schedule: Q01DX001 (ip), vehicle: carboxymethylcellulose (CMC)): 120 % of control
- T/C (dose: 80.0 mg/kg/injection, schedule: Q01DX001 (ip), vehicle: saline): 114 % of control
- T/C (dose: 120.0 mg/kg/injection, schedule: Q01DX001 (ip), vehicle: carboxymethylcellulose (CMC)): 88 % of control

SMILES: O=C(C(CO)C(CO)C(=O)N1Cc2cc3ccccc3nc2C1)N1Cc2cc3ccccc3nc2C1 (stereo not given)
- T/C (dose: 100.0 mg/kg/injection, schedule: Q01DX001 (ip), vehicle: Klucel (hydroxypropylcellulose) (HPC)): 103 % of control
- T/C (dose: 200.0 mg/kg/injection, schedule: Q01DX001 (ip), vehicle: Klucel (hydroxypropylcellulose) (HPC)): 95 % of control
- T/C (dose: 400.0 mg/kg/injection, schedule: Q01DX001 (ip), vehicle: Klucel (hydroxypropylcellulose) (HPC)): 92 % of control
